Read-outs that look alike come from different tables or passages of the source.
Experiments:
[1] = from Cc1cccc(C)c1-c1cc(OC[C@@H](CC(C)(C)C)NCc2cn3ccc(Br)cc3n2)nc(NS(=O)(=O)c2cccc(C(=O)O)c2)n1; amide bond; 13-membered ring; CDMT/NMM; DMF; 28.2 mM; 3.08 h
[2] = biological target: T1, CFTR (F508del/MF-HBE cells) (Homo sapiens, UniProt P13569, DEL508-508); assay: Ussing chamber assay of CFTR-mediated short-circuit currents, Assay C (0.026 μM to 25 μM, 6 concentrations); type: cell-based; details: with 33 nM potentiator and 18 μM Tezacaftor, 20% human serum
T1 construct: human bronchial epithelial (HBE) cells derived from CF subjects heterozygous for F508del and a minimal function CFTR mutation (F508del/MF-HBE); endogenous in cells; host or cells: Primary human bronchial epithelial cells from CF subjects (F508del/MF genotype), differentiated at an air-liquid interface
How it was run: (§1)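 Short-circuit current was recorded at 37 °C under voltage clamp (0 mV) with amiloride 30 μM apically, forskolin 20 μM activation, then BPO/GlyH-101/inh-172 (20 μM each) to isolate CFTR current. Before recording, corrector exposure lasted 18–24 h with 18 μM tezacaftor, 20% human serum, and 33 nM (dose–response) or 44 nM (1 μM fixed) potentiator, maintained throughout.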

[3] = biological target: T1, CFTR (F508del/MF-HBE cells); assay: Ussing chamber assay of CFTR-mediated short-circuit currents, Assay D (single concentration of 1 μM); type: cell-based; details: with 44 nM potentiator and 18 μM Tezacaftor, 18-24 hours, 20% human serum
How it was run: as §1

[4] = amide bond, 13-membered ring

T1 sequence (P13569 with tags, fused parts or gaps DEL508-508): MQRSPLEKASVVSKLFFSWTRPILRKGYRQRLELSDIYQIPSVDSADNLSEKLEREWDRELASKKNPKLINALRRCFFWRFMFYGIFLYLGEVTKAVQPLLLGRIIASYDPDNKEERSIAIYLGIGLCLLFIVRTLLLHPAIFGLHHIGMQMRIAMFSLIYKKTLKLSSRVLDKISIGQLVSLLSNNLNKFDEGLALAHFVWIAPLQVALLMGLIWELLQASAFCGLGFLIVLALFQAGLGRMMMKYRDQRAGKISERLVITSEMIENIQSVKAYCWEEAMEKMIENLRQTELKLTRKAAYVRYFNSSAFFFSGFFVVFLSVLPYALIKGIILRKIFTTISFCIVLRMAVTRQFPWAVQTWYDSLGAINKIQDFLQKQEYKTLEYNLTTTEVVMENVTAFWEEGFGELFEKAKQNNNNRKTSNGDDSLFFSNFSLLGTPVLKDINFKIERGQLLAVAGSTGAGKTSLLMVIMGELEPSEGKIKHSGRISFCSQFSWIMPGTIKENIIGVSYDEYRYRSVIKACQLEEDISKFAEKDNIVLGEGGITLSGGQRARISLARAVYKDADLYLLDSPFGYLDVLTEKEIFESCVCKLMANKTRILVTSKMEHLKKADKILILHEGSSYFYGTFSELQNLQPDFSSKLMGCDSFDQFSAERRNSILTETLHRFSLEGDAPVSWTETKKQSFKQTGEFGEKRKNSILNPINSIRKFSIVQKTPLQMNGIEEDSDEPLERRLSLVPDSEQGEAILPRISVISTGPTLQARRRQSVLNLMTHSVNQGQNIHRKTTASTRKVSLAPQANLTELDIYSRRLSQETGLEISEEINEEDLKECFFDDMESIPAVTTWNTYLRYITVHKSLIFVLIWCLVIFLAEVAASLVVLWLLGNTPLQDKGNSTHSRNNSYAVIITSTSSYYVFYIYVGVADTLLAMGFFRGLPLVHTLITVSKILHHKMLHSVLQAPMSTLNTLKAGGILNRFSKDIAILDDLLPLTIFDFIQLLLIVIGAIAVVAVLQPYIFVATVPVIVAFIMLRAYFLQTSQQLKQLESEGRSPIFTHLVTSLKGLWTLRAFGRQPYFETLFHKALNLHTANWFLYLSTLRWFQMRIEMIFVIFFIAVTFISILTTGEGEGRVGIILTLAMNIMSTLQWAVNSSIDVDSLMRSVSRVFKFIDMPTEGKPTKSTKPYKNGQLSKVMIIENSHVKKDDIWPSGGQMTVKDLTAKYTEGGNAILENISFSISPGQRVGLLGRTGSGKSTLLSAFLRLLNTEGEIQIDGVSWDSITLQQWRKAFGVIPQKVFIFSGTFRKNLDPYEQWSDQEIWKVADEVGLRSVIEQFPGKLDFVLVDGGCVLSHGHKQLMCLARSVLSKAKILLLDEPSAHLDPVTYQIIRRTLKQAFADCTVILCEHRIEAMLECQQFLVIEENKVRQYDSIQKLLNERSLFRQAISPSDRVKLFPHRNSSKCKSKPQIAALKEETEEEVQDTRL

| Compound | ring closure, crude yield [1] | Emax ([2]; 18-24 hours, read-out: C Max activity (%)) | EC50 [2] | D activity at 1 μM (%) [3] | ring closure, isolated yield ([4]; from Cc1cccc(C)c1-c1cc(OCC(NCc2cnc3oc(C4CC4)cc3n2)C(C(C)C)C(C)C)nc(NS(=O)(=O)c2cccc(C(=O)O)c2)n1, CDMT/NMM, DMF, 15.0 mM, 68.0 h) | ring closure, isolated yield ([4]; from Cc1cccc(C)c1-c1cc(OC[C@@H](CC2(C)CC2)NCc2cnc3oc(Br)cc3n2)nc(NS(=O)(=O)c2cccc(C(=O)O)c2)n1, CDMT?, 16.0 h) |
| --- | --- | --- | --- | --- | --- | --- |
| Cc1cccc(C)c1-c1cc2nc(n1)NS(=O)(=O)c1cccc(c1)C(=O)N(Cc1cn3ccc(Br)cc3n1)[C@H](CC(C)(C)C)CO2 | 90% |  |  |  |  |  |
| Cc1cccc(C)c1-c1cc2nc(n1)NS(=O)(=O)c1cccc(c1)C(=O)N(Cc1cnc3oc(C4CC4)cc3n1)C(C(C(C)C)C(C)C)CO2 (single isomer, unassigned) [Compound I-177, 12-[(6-cyclopropylfuro[2,3-b]pyrazin-2-yl)methyl]-6-(2,6-dimethylphenyl)-11-(1-isopropyl-2-methyl-propyl)-2,2-dioxo-9-oxa-2λ^6-thia-3,5,12,19-tetrazatricyclo[12.3.1.14,8]nonadeca-1(18),4(19),5,7,14,16-hexaen-13-one] |  | > 60% | < 1000 nM | +++ (+++ is >60%) | 31% |  |
| Cc1cccc(C)c1-c1cc2nc(n1)NS(=O)(=O)c1cccc(c1)C(=O)N(Cc1cnc3oc(Br)cc3n1)[C@H](CC1(C)CC1)CO2 [Compound I-254, (11R)-12-[(6-bromofuro[2,3-b]pyrazin-2-yl)methyl]-6-(2,6-dimethylphenyl)-11-[(1-methylcyclopropyl)methyl]-2,2-dioxo-9-oxa-2λ^6-thia-3,5,12,19-tetrazatricyclo[12.3.1.14,8]nonadeca-1(18),4(19),5,7,14,16-hexaen-13-one] |  |  |  | ++ (++ is 30-60%) |  | 65% |

— patent US20250340574A1, “MODULATORS OF CYSTIC FIBROSIS TRANSMEMBRANE CONDUCTANCE REGULATOR” (Vertex Pharmaceuticals Incorporated, priority 2022, published 2025)
